{"source": "patent US20140242093A1", "about": "“METHODS AND COMPOSITIONS FOR MODULATING THE INNATE IMMUNE RESPONSE AND/OR MYOGENESIS IN A MAMMALIAN SUBJECT” (FRED HUTCHINSON CANCER RESEARCH CENTER, priority 2011, published 2014)", "test_system": "human genome (hg18)", "experiment": "ChIP-Seq of DUX4 binding sites in transduced primary myoblasts", "details": "for max.cov (peak height): non-repeat binding site", "experimental": "Non-redundant reads unambiguously mapped to the human genome were computationally extended to a total length of 200 nucleotides and “peaks” were defined as regions where the number of reads was higher than a statistical threshold compared to the background, as described below. Reads mapping to the X and Y chromosomes were excluded from the analysis.\nChIP was performed and ChIP DNA samples were prepared as previously described in Cao et al., Dev. Cell 18:662-674 (2010), hereby incorporated herein by reference. […] Anti-DUX4 N-terminus polyclonal antibodies FH106 and FH107 were combined to immunoprecipitate DUX4-s. The samples were sequenced with Illumina Genome Analyzer II.\nSequences were extracted by Illumina package GApipeline and reads were aligned using BWA to the human genome (hg18). The inventors only kept one of the duplicated sequences to minimize the artifacts of PCR amplification. Each read was extended in the sequencing orientation to a total of 200 bases to infer the coverage at each genomic position. Peak calling was performed by a house developed R package “peakSig” (pending submission to Bioconductor), which model background reads by a negative binomial distribution. The negative binomial distribution can be viewed as a continuous mixture of Poisson distribution where the mixing distribution of the Poisson rate is modeled as a Gamma prior. This prior distribution is used to capture the variation of background reads density across the genome. Model parameters were estimated by fitting the truncated distribution on the number of bases with low coverage (one to three), to avoid the problem of inferring effective genome size excluding the non-mappable regions, and to eliminate contamination of any foreground signals in the high coverage regions. The inventors also fit a GC dependent mixture model so that the significance of the peaks is determined not only by peak height, but also by the GC content of the neighboring genomic regions.\nDiscriminative motif discovery was carried out as described in Palii et al. (2011), in which motifs were identified that distinguish a positive and a negative sequence dataset, which in this study, the positive sequences correspond to Dux4 binding sites and negative sequences correspond to the randomly sampled flanking regions of Dux4 binding sites. To generate more accurate presentation of the Dux4 binding sites from the consensus pattern returned by this analysis, the inventors tried to learn a positional weight matrix (PWM) model, using the matches of the consensus pattern as the seed to initialize the iterative expectation-maximization (EM) refinement process similar to MEME. If appropriate, the motifs are extended iteratively as long as there is sequence preference in the flanking region, and refined in the same EM process.\nThe inventors associated a peak to its closest TSS within the region flanked by CTCF binding sites, which were identified in a ChIP-seq experiment on human CD4+ T cells (GEO accession number GSE12889/GSM325895).", "key": {"[1]": {"details": "repeat family DNA/TcMar-Mariner"}, "[2]": {"details": "repeat family DNA/hAT-Blackjack"}}}
{"substance": "DUX4-fl: full-length DUX4 protein (SEQ ID NO:110), expressed from lentiviral or pCS2 vectors or in vitro translated", "values": [{"measurement": "max.cov (peak height)", "setting": "SNAI1, chr20, dist2tss 769", "value": 62}, {"measurement": "max.cov (peak height)", "setting": "SON, chr21, dist2tss −2951", "value": 244}, {"measurement": "max.cov (peak height)", "setting": "SPRYD5, chr11, dist2tss −2855", "value": 133}, {"measurement": "max.cov (peak height)", "setting": "SPTY2D1, chr11, dist2tss 5934", "value": 74}, {"measurement": "max.cov (peak height)", "setting": "SPTY2D1, chr11, dist2tss −797", "value": 105}, {"measurement": "max.cov (peak height)", "setting": "SRRT, chr7, dist2tss 1546", "value": 128}, {"measurement": "max.cov (peak height)", "setting": "SYNJ1, chr21, dist2tss −766", "value": 229}, {"measurement": "max.cov (peak height)", "setting": "TAF4B, chr18, dist2tss −1741", "value": 65}, {"measurement": "max.cov (peak height)", "setting": "TFIP11, chr22, dist2tss −1353", "value": 234}, {"measurement": "max.cov (peak height)", "setting": "TRIM43, chr2, dist2tss 1385", "value": 47}, {"measurement": "max.cov (peak height)", "setting": "TRIM43, chr2, dist2tss −5584", "value": 85}, {"measurement": "max.cov (peak height)", "setting": "TRIM48, chr11, dist2tss −151", "value": 178}, {"measurement": "max.cov (peak height)", "setting": "TRIM49L1, chr11, dist2tss 200", "value": 85}, {"measurement": "max.cov (peak height)", "setting": "TRIM49L2, chr11, dist2tss −202", "value": 109}, {"measurement": "max.cov (peak height)", "setting": "USP29, chr19, dist2tss 2090", "value": 104}, {"measurement": "max.cov (peak height)", "setting": "USP29, chr19, dist2tss 3676", "value": 66}, {"measurement": "max.cov (peak height)", "setting": "ZNF217, chr20, dist2tss 3546", "value": 122}, {"measurement": "max.cov (peak height)", "setting": "ZNF217, chr20, dist2tss −2168", "value": 55}, {"measurement": "max.cov (peak height)", "setting": "ZNF296, chr19, dist2tss 182", "value": 110}, {"measurement": "max.cov (peak height)", "setting": "ZNF705A, chr12, dist2tss −5106", "value": 224}, {"measurement": "max.cov (peak height)", "setting": "ZSCAN4, chr19, dist2tss 1430", "value": 364}, {"measurement": "max.cov (peak height)", "setting": "ZSCAN5B, chr19, dist2tss 4892", "value": 89}, {"measurement": "max.cov (peak height)", "setting": "ZSCAN5B, chr19, dist2tss −4101", "value": 67}, {"measurement": "max.cov (peak height)", "setting": "ZSCAN5B, chr19, dist2tss −5014", "value": 98}, {"measurement": "max.cov (peak height)", "setting": "hCG_1651160, chr7, dist2tss −192", "value": 215}, {"measurement": "max.cov (peak height)", "setting": "hCG_1651160, chr7, dist2tss −892", "value": 114}, {"measurement": "DUX4-fl Binding Prevalence (fraction of all DUX4-fl peaks)", "setting": "[1]", "value": 0.00105}, {"measurement": "DUX4-fl Enrichment (binding prevalence/overall genome prevalence)", "setting": "[1]", "value": 1.14}, {"measurement": "DUX4-fl Binding Prevalence (fraction of all DUX4-fl peaks)", "setting": "repeat family DNA/TcMar-Tigger", "value": 0.0124}, {"measurement": "DUX4-fl Enrichment (binding prevalence/overall genome prevalence)", "setting": "repeat family DNA/TcMar-Tigger", "value": 1.11}, {"measurement": "DUX4-fl Binding Prevalence (fraction of all DUX4-fl peaks)", "setting": "[2]", "value": 0.00064}, {"measurement": "DUX4-fl Enrichment (binding prevalence/overall genome prevalence)", "setting": "[2]", "value": 0.57}, {"measurement": "DUX4-fl Binding Prevalence (fraction of all DUX4-fl peaks)", "setting": "repeat family DNA/hAT-Charlie", "value": 0.00761}, {"measurement": "DUX4-fl Enrichment (binding prevalence/overall genome prevalence)", "setting": "repeat family DNA/hAT-Charlie", "value": 0.51}, {"measurement": "DUX4-fl Binding Prevalence (fraction of all DUX4-fl peaks)", "setting": "repeat family DNA/hAT-Tip100", "value": 0.00098}, {"measurement": "DUX4-fl Enrichment (binding prevalence/overall genome prevalence)", "setting": "repeat family DNA/hAT-Tip100", "value": 0.45}, {"measurement": "DUX4-fl Binding Prevalence (fraction of all DUX4-fl peaks)", "setting": "repeat family DNA/hAT?", "value": 0.00016}, {"measurement": "DUX4-fl Enrichment (binding prevalence/overall genome prevalence)", "setting": "repeat family DNA/hAT?", "value": 0.94}, {"measurement": "DUX4-fl Binding Prevalence (fraction of all DUX4-fl peaks)", "setting": "repeat family LINE/CR1", "value": 0.00356}, {"measurement": "DUX4-fl Enrichment (binding prevalence/overall genome prevalence)", "setting": "repeat family LINE/CR1", "value": 1.00}, {"measurement": "DUX4-fl Binding Prevalence (fraction of all DUX4-fl peaks)", "setting": "repeat family LINE/L1", "value": 0.0938}, {"measurement": "DUX4-fl Enrichment (binding prevalence/overall genome prevalence)", "setting": "repeat family LINE/L1", "value": 0.58}, {"measurement": "DUX4-fl Binding Prevalence (fraction of all DUX4-fl peaks)", "setting": "repeat family LINE/L2", "value": 0.02978}, {"measurement": "DUX4-fl Enrichment (binding prevalence/overall genome prevalence)", "setting": "repeat family LINE/L2", "value": 0.86}, {"measurement": "DUX4-fl Binding Prevalence (fraction of all DUX4-fl peaks)", "setting": "repeat family LTR/ERV", "value": 0.00032}, {"measurement": "DUX4-fl Enrichment (binding prevalence/overall genome prevalence)", "setting": "repeat family LTR/ERV", "value": 5.33}, {"measurement": "DUX4-fl Binding Prevalence (fraction of all DUX4-fl peaks)", "setting": "repeat family LTR/ERV1", "value": 0.01878}, {"measurement": "DUX4-fl Enrichment (binding prevalence/overall genome prevalence)", "setting": "repeat family LTR/ERV1", "value": 0.72}, {"measurement": "DUX4-fl Binding Prevalence (fraction of all DUX4-fl peaks)", "setting": "repeat family LTR/ERVK", "value": 0.00803}, {"measurement": "DUX4-fl Enrichment (binding prevalence/overall genome prevalence)", "setting": "repeat family LTR/ERVK", "value": 2.97}, {"measurement": "DUX4-fl Binding Prevalence (fraction of all DUX4-fl peaks)", "setting": "repeat family LTR/ERVL", "value": 0.04558}, {"measurement": "DUX4-fl Enrichment (binding prevalence/overall genome prevalence)", "setting": "repeat family LTR/ERVL", "value": 2.50}, {"measurement": "DUX4-fl Binding Prevalence (fraction of all DUX4-fl peaks)", "setting": "repeat family LTR/ERVL-MaLR", "value": 0.3572}, {"measurement": "DUX4-fl Enrichment (binding prevalence/overall genome prevalence)", "setting": "repeat family LTR/ERVL-MaLR", "value": 9.92}, {"measurement": "DUX4-fl Binding Prevalence (fraction of all DUX4-fl peaks)", "setting": "repeat family LTR/Gypsy", "value": 0.00081}, {"measurement": "DUX4-fl Enrichment (binding prevalence/overall genome prevalence)", "setting": "repeat family LTR/Gypsy", "value": 1.07}, {"measurement": "DUX4-fl Binding Prevalence (fraction of all DUX4-fl peaks)", "setting": "repeat family SINE/Alu", "value": 0.00777}, {"measurement": "DUX4-fl Enrichment (binding prevalence/overall genome prevalence)", "setting": "repeat family SINE/Alu", "value": 0.08}, {"measurement": "DUX4-fl Binding Prevalence (fraction of all DUX4-fl peaks)", "setting": "repeat family SINE/MIR", "value": 0.02317}, {"measurement": "DUX4-fl Enrichment (binding prevalence/overall genome prevalence)", "setting": "repeat family SINE/MIR", "value": 0.82}, {"measurement": "DUX4-fl Binding Prevalence (fraction of all DUX4-fl peaks)", "setting": "repeat family SINE/tRNA", "value": 0.00011}, {"measurement": "DUX4-fl Enrichment (binding prevalence/overall genome prevalence)", "setting": "repeat family SINE/tRNA", "value": 1.57}, {"measurement": "DUX4-fl Binding Prevalence (fraction of all DUX4-fl peaks)", "setting": "repeat family Satellite", "value": 0.00068}, {"measurement": "DUX4-fl Enrichment (binding prevalence/overall genome prevalence)", "setting": "repeat family Satellite", "value": 0.66}, {"measurement": "DUX4-fl Binding Prevalence (fraction of all DUX4-fl peaks)", "setting": "repeat family Satellite/centr", "value": 0.00047}, {"measurement": "DUX4-fl Enrichment (binding prevalence/overall genome prevalence)", "setting": "repeat family Satellite/centr", "value": 0.19}, {"measurement": "DUX4-fl Binding Prevalence (fraction of all DUX4-fl peaks)", "setting": "repeat family Simple_repeat", "value": 0.00442}, {"measurement": "DUX4-fl Enrichment (binding prevalence/overall genome prevalence)", "setting": "repeat family Simple_repeat", "value": 0.53}, {"measurement": "DUX4-fl Binding Prevalence (fraction of all DUX4-fl peaks)", "setting": "repeat family Unknown", "value": 0.00063}, {"measurement": "DUX4-fl Enrichment (binding prevalence/overall genome prevalence)", "setting": "repeat family Unknown", "value": 1.47}, {"measurement": "DUX4-fl Binding Prevalence (fraction of all DUX4-fl peaks)", "setting": "repeat family rRNA", "value": "1.00E−04"}, {"measurement": "DUX4-fl Enrichment (binding prevalence/overall genome prevalence)", "setting": "repeat family rRNA", "value": 1.67}]}
